The source of these data is patent publication US20250108064A1, “PHOSPHATE PRODRUGS OF CANNABINOIDS” (priority 2021, published 2025).

The nature of data set [1]: Liver microsome stability assay (HLM). In kind it is in vitro ADME. The note with it: human, microsomes, pH 7.4; 3 μM test compound, NADPH; read-out: T½ in HLM. On the procedure:
General Experimental: Human and mouse liver microsomes were purchased from Xenotech at 20 mg/mL. NADPH (Sigma-Aldrich) 10 mM stocks were prepared in deionized water.
Procedure for Liver Microsome Stability Assay: Test compounds and positive controls were dissolved in 100% DMSO to make 10 mM stock solutions. Verapamil (Sigma-Aldrich) and diphenhydramine (Sigma-Aldrich) were used as positive controls for both human liver microsomes (HLM) and mouse liver microsomes (MLM). The 10 mM stock solutions of test and control compounds were further diluted in potassium phosphate buffer (100 mM, pH 7.4) to 500 μM to ensure that the organic solvent content was <0.2%. The liver microsome (HLM or MLM) assay was prepared in a 1.5 mL Eppendorf tube with a final volume of 1100 μL for duplicate runs. Each reaction contained phosphate buffer (928.4 μL), liver microsomes (55 μL), and test compound (6.6 μL of 500 μM), resulting in a final concentration of 3 μM for the test compound. The reaction was initiated with 110 μL of 10 mM NADPH. Aliquots (100 μL) were removed in duplicate at 0, 5, 10, 15, and 30 min and quenched in […] of 100% cold methanol which contained internal standard (ISTD: d5-7-ethoxy coumarin 2 μM). The aliquots were centrifuged at 12,000 g for 5 min, and the supernatant was transferred and placed in an LC-MS vial. Each time point was assessed by LC-MS/MS, and the area under the m/z curve (AUC), based on the MRM transition, was integrated w.r.t the ISTD. Positive controls were conducted at a final volume of 550 μL to enable a single run for each time point. Negative controls in the absence of NADPH were performed with the test and control compounds, respectively, at a final volume of 150 μL and measured at the most prolonged time point. Control compounds were processed and analyzed like test compounds. Each time point was run in triplicates on LC-MS/MS followed by in-between blank washes to avoid the carryover and to equilibrate the column. Half-life (T1/2) was calculated using the data obtained from LC-MS/MS and by plotting ln (% remaining of the parent prodrug) versus time and performing linear regression to determine slope. Slope=−k and T1/2=0.693/k for first-order kinetics.

Another data set is described as follows: physchem. The format is physicochemical. The following applies: aqueous buffer, kinetic from dmso stock; nephelometry, PBS pH 7.0-7.3, 1% DMSO, 25° C., 90 min. On the procedure:
General Experimental: Nephelometry experiments were performed using untreated Corning® Costar® 96-well black polystyrene plates with clear flat bottoms. Sample stock solutions and serial dilutions were prepared with DriSolv® DMSO purchased from MilliporeSigma. All 100-fold dilutions and replicate experiments were prepared using Gibco® Dulbecco's phosphate-buffered saline (DPBS, no calcium, no magnesium) with a pH range of 7.0-7.3 as aqueous media. […] Nephelometry data was obtained using a NEPHELOstar® microplate reader and processed with MARS data analysis software from BMG LabTech.
Procedure for Nephelometry Experiments: Tested compounds were dissolved in 100% DMSO to make stock solutions of specified concentrations, ranging from 10 mM minimum up to 50 mM maximum. The sample then underwent serial dilution in a 96-well plate (Corning® Costar®). Well A1 of the plate contained 100% DMSO. […] Using a 12 channel multichannel pipette, 2.5 μL of sample from row A was transferred to each well in row B through row H of the plate. Next, 30 μL of PBS (pH=7.0-7.3) was added to row B through row H, providing each well with 32.5 μL. The plate was then incubated for 30 sec with shaking. Finally, 217.5 μL of PBS buffer was added to row B through row H, and the entire plate was incubated with shaking at 25° C. for 90 min. Note: The final volume of DMSO in actual experiments with PBS buffer was 1% throughout the plate. After 90 min, the 96-well plate was analyzed with a NEPHELOstar® instrument and the data was processed with MARS data analysis software.

A short description of data set [2]: Plasma stability assay (human plasma). The format is in vitro ADME. The following applies: 37° C., read-out: T½ in human plasma (converted). On the procedure:
General Experimental: Procaine and Procainamide were purchased from Sigma-Aldrich. Human plasma was obtained from BioIVT (Cat. No. […]2N) and 1X Dulbecco's PBS (pH 7.4, Gibco) was obtained from Thermos Fischer. Stock solutions were prepared in 100% DMSO, and suitable dilutions of target analytes were prepared in methanol for method development.
Procedure for Plasma Stability Assay: Test compounds were dissolved in DMSO to make a stock solution of 10 mM and then diluted to 500 μM in buffer (or 70% MeOH). Human plasma was thawed at ambient temperature and is aliquoted ([…]) to a 1.5 mL Eppendorf tube in duplicates (A and B) for each compound. Plasma was incubated at 37° C. for 10 minutes in an incubator shaker at 150 rpm; the reaction was initiated by the addition of the test compound (6.0 μL) and vortex mixing. The total reaction volume was 1000 μL where the final organic solvent concentrations were 0.6% MeOH and 0.03% DMSO. The spiked plasma samples were incubated at 37° C. for 4 hrs. The reactions were terminated at time points 0, 15, 30, 60, 120, 180, and 240 min by taking a 100 μL aliquot from the test incubation mixture and immediately quenching it in ice-cold acetonitrile containing internal standard (150 μL with 2 μM ISTD), followed by a quick vortex mixing. In addition, matrix blank was prepared by adding acetonitrile solutions containing ISTD to plasma samples without any of the analytes or control compounds. Also, an additional tube was made to measure compound degradation in PBS buffer. The samples were centrifuged at 15000 rpm for 25 min at 4° C. The supernatant was transferred to an LC-MS vial for analysis by LC/MS-MS. Each time point was run in duplicates followed by in-between blank washes to avoid the carryover and to equilibrate the column. Half-life (T1/2) was calculated using the data obtained from LC-MS/MS and by plotting ln (% remaining of the parent prodrug) versus time and performing linear regression to determine slope. Slope=−k and T1/2=0.693/k for first-order kinetics.
These positive controls were run in parallel to test the systems for competency.

Broadly, the solubility is the concentration that dissolves in the medium under given conditions.

`C=C(C)[C@@H]1CCC(C)=C[C@H]1c1c(O)cc(CCCCC)cc1OC(=O)C1CC(OP(=O)(O)O)C1.N.N` (stereo partly drawn) [7c, 3-((((1′R,2′R)-6-hydroxy-5′-methyl-4-pentyl-2′-(prop-1-en-2-yl)-1′,2′,3′,4′-tetrahydro-[1,1′-biphenyl]-2-yl)oxy)carbonyl)cyclobutyl phosphate di-ammonium salt]: the half-life is 53 min in data set [1] and 432 min in data set [2]. Moreover, the solubility in “physchem” was > 500 µM.
As to `C=C(C)[C@@H]1CCC(C)=C[C@H]1c1c(O)cc(CCCCC)cc1OC(=O)C(C)OP(=O)(O)O.N.N` (stereo partly drawn) [7d, 1-(((1′R,2′R)-6-hydroxy-5′-methyl-4-pentyl-2′-(prop-1-en-2-yl)-1′,2′,3′,4′-tetrahydro-[1,1′-biphenyl]-2-yl)oxy)-1-oxopropan-2-yl phosphate di-ammonium salt], the half-life was 50 min in data set [1] and 21 min in data set [2] (unit min). The solubility in “physchem” is > 500 µM.
For `C=C(C)[C@@H]1CCC(C)=C[C@H]1c1c(O)cc(CCCCC)cc1OC(=O)C(C)(C)OP(=O)(O)O.N.N` [7e, 1-(((1′R,2′R)-6-hydroxy-5′-methyl-4-pentyl-2′-(prop-1-en-2-yl)-1′,2′,3′,4′-tetrahydro-[1,1′-biphenyl]-2-yl)oxy)-2-methyl-1-oxopropan-2-yl phosphate di-ammonium salt], the solubility in “physchem” was > 500 µM. Besides, in data set [2] (unit min), the half-life is 24 min.
In the case of `C=C(C)[C@@H]1CCC(C)=C[C@H]1c1c(O)cc(CCCCC)cc1OC(=O)C1(OP(=O)(O)OC(C)C)CC1.N` [14a, 1-((((1′R,2′R)-6-hydroxy-5′-methyl-4-pentyl-2′-(prop-1-en-2-yl)-1′,2′,3′,4′-tetrahydro-[1,1′-biphenyl]-2-yl)oxy)carbonyl)cyclopropyl isopropyl phosphate ammonium salt], the half-life in data set [1] is 13 min; in data set [2], > 180 min. The solubility in “physchem” was > 500 µM.
For `C=C(C)[C@@H]1CCC(C)=C[C@H]1c1c(O)cc(CCCCC)cc1OC(=O)C1(OP(=O)(O)OCCCCC)CC1.N` [14b, 1-((((1′R,2′R)-6-hydroxy-5′-methyl-4-pentyl-2′-(prop-1-en-2-yl)-1′,2′,3′,4′-tetrahydro-[1,1′-biphenyl]-2-yl)oxy)carbonyl)cyclopropyl pentyl phosphate ammonium salt], the half-life was 24 min in data set [1] and 576 min in data set [2]. Also, the solubility in “physchem” was 276 ± 4.52 µM.
Take `C=C(C)[C@@H]1CCC(C)=C[C@H]1c1c(O)cc(CCCCC)cc1OC(=O)C1(OP(=O)(O)OCCC(C)C)CC1.N` [14c, 1-((((1′R,2′R)-6-hydroxy-5′-methyl-4-pentyl-2′-(prop-1-en-2-yl)-1′,2′,3′,4′-tetrahydro-[1,1′-biphenyl]-2-yl)oxy)carbonyl)cyclopropyl isopentyl phosphate ammonium salt]: the half-life in data set [1] is 24 min; in data set [2], > 240 min. The solubility in the data set “physchem” stood at 345 ± 4.51 µM.
For `C=C(C)[C@@H]1CCC(C)=C[C@H]1c1c(O)cc(CCCCC)cc1OC(=O)C1(OP(=O)(O)OCCCCCC)CC1.N` [14d, hexyl (1-((((1′R,2′R)-6-hydroxy-5′-methyl-4-pentyl-2′-(prop-1-en-2-yl)-1′,2′,3′,4′-tetrahydro-[1,1′-biphenyl]-2-yl)oxy)carbonyl)cyclopropyl) phosphate ammonium salt], the figures for the half-life in data set [1] and in data set [2] were 32 min and > 240 min, respectively. Besides, the solubility in “physchem” is 98 ± 1.24 µM.
On to `C=C(C)[C@@H]1CCC(C)=C[C@H]1c1c(O)cc(CCCCC)cc1OC(=O)C1(OP(=O)(O)OCCCCCCC)CC1.N` [14e, heptyl (1-((((1′R,2′R)-6-hydroxy-5′-methyl-4-pentyl-2′-(prop-1-en-2-yl)-1′,2′,3′,4′-tetrahydro-[1,1′-biphenyl]-2-yl)oxy)carbonyl)cyclopropyl) phosphate ammonium salt], for which the half-life in data set [1] is 45 min; in data set [2] it was > 240 min. In the data set “physchem”, this molecule gave a solubility of 57 ± 1.24 µM.
`C=C(C)[C@@H]1CCC(C)=C[C@H]1c1c(O)cc(CCCCC)cc1OC(=O)C1(OP(=O)(O)OCCCCCCCCC)CC1.N` [14f, 1-((((1′R,2′R)-6-hydroxy-5′-methyl-4-pentyl-2′-(prop-1-en-2-yl)-1′,2′,3′,4′-tetrahydro-[1,1′-biphenyl]-2-yl)oxy)carbonyl)cyclopropyl nonyl phosphate ammonium salt]: the half-life is > 30 min in data set [1] and > 240 min in data set [2]. This molecule came in with a solubility in the data set “physchem” of 67 ± 5.98 µM.
Turning to `C=C(C)[C@@H]1CCC(C)=C[C@H]1c1c(O)cc(CCCCC)cc1OC(=O)C1(OP(=O)(O)OCCCCCCCCCC)CC1.N` [14g, decyl (1-((((1′R,2′R)-6-hydroxy-5′-methyl-4-pentyl-2′-(prop-1-en-2-yl)-1′,2′,3′,4′-tetrahydro-[1,1′-biphenyl]-2-yl)oxy)carbonyl)cyclopropyl) phosphate ammonium salt], the half-life in data set [1] was > 30 min; in data set [2], > 240 min. The same molecule returned a solubility in “physchem” of 75 ± 2.14 µM.
`C=C(C)[C@@H]1CCC(C)=C[C@H]1c1c(O)cc(CCCCC)cc1OC(=O)C1(OP(=O)(O)OCC(CCC)CCC)CC1.N` [14h, 1-((((1′R,2′R)-6-hydroxy-5′-methyl-4-pentyl-2′-(prop-1-en-2-yl)-1′,2′,3′,4′-tetrahydro-[1,1′-biphenyl]-2-yl)oxy)carbonyl)cyclopropyl (2-propylpentyl) phosphate ammonium salt]: the values for the half-life in data set [1] and in data set [2] were 26 min and > 240 min, respectively. The same molecule had a solubility in “physchem” of 66 ± 3.17 µM.
On to `C=C(C)[C@@H]1CCC(C)=C[C@H]1c1c(O)cc(CCCCC)cc1OC(=O)OCOP(=O)(O)O.N.N` [compound 24, (1′R,2′R)-6-hydroxy-5′-methyl-4-pentyl-2′-(prop-1-en-2-yl)-1′,2′,3′,4′-tetrahydro-[1,1′-biphenyl]-2-yl ((phosphonooxy)methyl) carbonate di-ammonium salt], for which the solubility in the data set “physchem” is > 500 µM. In addition, the half-life in data set [2] was > 240 min.
